This note sets out measurements from ChEMBL document CHEMBL4190162, “SAR and identification of 2-(quinolin-4-yloxy)acetamides as Mycobacterium tuberculosis cytochrome bc1 inhibitors” (Medchemcomm, 2016).

In brackets after ≈: the same amount, converted by molar mass. Activity calls are given as the source filed them.

Series [1] relates to Mycobacterium tuberculosis. Briefly: Antimycobacterial activity against Mycobacterium tuberculosis H37Rv measured after 6 days by resazurin dye based fluorescence assay. The class given is functional. The settings on record: 144 h. In general terms: Resazurin is reduced to fluorescent resorufin, in cell work by metabolically active cells.
Series [2] relates to Mycobacterium tuberculosis. Briefly: Antimycobacterial activity against Mycobacterium tuberculosis H37Rv BSG001. The class given is functional, organism-based.
The subject of series [3] is Mycobacterium tuberculosis. Briefly: Antimycobacterial activity against Mycobacterium tuberculosis H37Rv after 2 weeks by microplate alamar blue assay. The series is classed as functional. The settings on record: 336 h.
Series [4] deals with Mycobacterium tuberculosis. Briefly: Antimycobacterial activity against Mycobacterium tuberculosis H37Rv measured after 2 weeks. The class given is functional. The settings on record: 336 h.
Series [5] is described as follows: Cytotoxicity against human HepG2 cells after 24 to 48 hrs in presence of glucose by trypan blue dye-based hemocytometric method. The class given is cell-based.
Series [6] has as its system Mycobacterium tuberculosis. Briefly: Antimycobacterial activity against Mycobacterium tuberculosis H37Rv measured after 1 week. The series is classed as functional. The settings on record: 168 h.
Series [7] deals with Mycobacterium tuberculosis H37Rv. Briefly: Inhibition of Mycobacterium tuberculosis H37Rv cytochrome bc1 oxidase assessed as reduction in ATP level measured up to 24 hrs under anaerobic condition.
Series [8] is described as follows: Cytotoxicity against human HepG2 cells after 24 to 48 hrs in presence of galactose by trypan blue dye-based hemocytometric method. The series is classed as cell-based.
The next series relates to Escherichia coli. Briefly: Antibacterial activity against Escherichia coli 25922. The class given is functional, organism-based. The settings on record: ATCC 25922.
The test system of series [9] is Mycolicibacterium smegmatis. Briefly: Antibacterial activity against Mycobacterium smegmatis. The class given is functional, organism-based.
For series [10], the system named is Mycobacteroides abscessus. Briefly: Antibacterial activity against Mycobacterium abscessus. The series is classed as functional, organism-based.
The next series deals with Staphylococcus aureus. Briefly: Antibacterial activity against Staphylococcus aureus XEN36. The class given is functional, organism-based.

The term MIC90 denotes the lowest concentration that inhibits either 90% of growth or 90% of the strains tested, depending on the study. Read a low MIC90 as higher susceptibility. In general, MIC refers to the smallest concentration in the dilution series that meets the test's criterion for growth inhibition. The CC50 is the concentration giving 50% cytotoxicity.

In turn, `Cc1cc(OCC(=O)NCc2ccccc2)c2cc(Br)ccc2n1` had an MIC90 in series [1] of 0.3 to 3.3 µM (≈ 0.116 to 1.27 µg/mL).
On to `COc1ccc2nc(C)cc(OCC(=O)NCc3ccccc3)c2c1`, for which the MIC90 in [1] was 0.3 to 3.3 µM (≈ 0.101 to 1.11 µg/mL). Besides, the result in [2] was inactive. Moreover, the results for the MIC in series [3], in series [4] and in [6] were 2.32 µM (≈ 0.78 µg/mL), > 148 µM and 3.57 µM (≈ 1.2 µg/mL), respectively. The cytotoxic concentration (CC50) in [5] and in series [8] was > 149 µM throughout. Also, the inhibition entry in [7] is “Active”.
Molecule `Cc1cc(OCC(=O)Nc2ccccc2)c2cc(Br)ccc2n1` registered an MIC90 in series [1] of 0.3 to 3.3 µM (≈ 0.111 to 1.23 µg/mL).
For the molecule `COc1ccc(NC(=O)COc2cc(C)nc3ccc(OC)cc23)c(OC)c1`, the outcome (in [2]; in the series with Escherichia coli; in series [9]; in series [10]; with Staphylococcus aureus) was inactive. Further, the MIC in series [3] came out at 2.04 µM (≈ 0.78 µg/mL); in [4], 32.7 µM (≈ 12.5 µg/mL); in series [6], 24.6 µM (≈ 9.4 µg/mL). Further, the CC50 in series [5] and in series [8] was > 131 µM throughout. Besides, the inhibition entry in series [7] was “Active”.
In the case of `COc1ccccc1NC(=O)COc1cc(C)nc2ccc(C)cc12`, the result (in [2]; in the series on Escherichia coli; in [9]; in [10]; in the series with Staphylococcus aureus) was inactive. Besides, the MIC in [3] is 9.3 µM (≈ 3.13 µg/mL); in series [4], > 74 µM; in series [6], 56.5 µM (≈ 19 µg/mL). Moreover, the 50% cytotoxic concentration (CC50) in series [5] and in series [8] was > 74 µM throughout. Besides, the inhibition result in series [7] was “Active”.
Regarding `COc1ccc(NC(=O)COc2cc(C)nc3ccc(OC)cc23)cc1`, the result (in [2]; in the series with Escherichia coli; in series [9]; in series [10]; with Staphylococcus aureus) was inactive. For the same molecule, the values for the MIC in [3], in series [4] and in [6] were 1.11 µM (≈ 0.391 µg/mL), > 142 µM and 2.21 µM (≈ 0.779 µg/mL), respectively. The CC50 in series [5] and in series [8] was > 142 µM each time. Further, the inhibition entry in [7] was “Active”.
Regarding `COc1ccc2nc(C)cc(OCC(=O)Nc3ccc(Br)cc3)c2c1`, the result (in [2]; in the series on Escherichia coli; in [9]; in series [10]; in the series with Staphylococcus aureus) was inactive. In addition, the minimum inhibitory concentration (MIC) in series [3] is 1.94 µM (≈ 0.778 µg/mL); in series [4] it was > 125 µM; in [6] it was > 125 µM. The CC50 in [5] and in [8] was > 125 µM each time. Besides, the inhibition entry in [7] was “Active”.
For the molecule `COc1ccccc1NC(=O)COc1cc(C)nc2ccccc12`, the outcome (in series [2]; with Escherichia coli; in series [9]; in [10]; in the series with Staphylococcus aureus) was inactive. Besides, the minimum inhibitory concentration (MIC) is > 78 µM in series [3], > 155 µM in [4] and 38.8 µM (≈ 12.5 µg/mL) in series [6]. The CC50 in [5] is 43.9 µM; in series [8], 8.64 µM. Also, the inhibition entry in series [7] was “Active”.
Consider `COCCNC(=O)COc1cc(C)nc2ccc(OC)cc12`, for which the result (in series [2]; with Escherichia coli; in series [9]; in series [10]; in the series with Staphylococcus aureus) was inactive. In addition, the results for the MIC in series [3], in series [4] and in series [6] were 122 µM (≈ 37 µg/mL), > 164 µM and > 164 µM, respectively. Besides, the CC50 in series [5] and in series [8] was > 164 µM in each case. The inhibition entry in [7] is “Active”.
Take `COc1ccc2nc(C)cc(OCC(=O)NCCc3ccc(OC)c(OC)c3)c2c1`: the outcome (in series [2]; in the series with Escherichia coli; in series [9]; in series [10]; in the series on Staphylococcus aureus) was inactive. Further, the MIC was 122 µM (≈ 50.1 µg/mL) in [3], > 122 µM in series [4] and > 122 µM in series [6]. Also, the CC50 in series [5] and in series [8] was > 122 µM each time. The inhibition result in series [7] is “Active”.
As to `COc1ccc2nc(C)cc(OCC(=O)Nc3ccccc3Cl)c2c1`, the outcome (in [2]; with Escherichia coli; in series [9]; in series [10]; with Staphylococcus aureus) was inactive. For the same molecule, the minimum inhibitory concentration (MIC) in series [3] is 0.56 µM (≈ 0.2 µg/mL); in [4], 53.2 µM (≈ 19 µg/mL); in [6] it was 26.4 µM (≈ 9.4 µg/mL). For the same molecule, the CC50 in [5] and in [8] was > 140 µM in each case. For the same molecule, in [7], the inhibition entry was “Active”.
Take `COc1ccc2nc(C)cc(OCC(=O)Nc3ccc(Cl)cc3)c2c1`: the result (in series [2]; with Escherichia coli; in series [9]; in series [10]; in the series with Staphylococcus aureus) was inactive. Besides, the results for the minimal inhibitory concentration (MIC) in series [3], in [4] and in [6] were 3.36 µM (≈ 1.2 µg/mL), > 140 µM and 104 µM (≈ 37 µg/mL), respectively. Further, the half-maximal cytotoxic concentration (CC50) stood at 89.9 µM in series [5] and 71.1 µM in series [8]. In series [7], the inhibition result is “Active”.
The molecule `COc1ccc2nc(C)cc(OCC(=O)Nc3ccccc3OC)c2c1` had an MIC90 in [1] of 0.3 to 3.3 µM (≈ 0.106 to 1.16 µg/mL). The outcome in series [2] was inactive. For the same molecule, the figures for the minimum inhibitory concentration (MIC) in series [3], in series [4] and in series [6] were 1.11 µM (≈ 0.391 µg/mL), 53.9 µM (≈ 19 µg/mL) and 2.21 µM (≈ 0.779 µg/mL), respectively. Besides, the 50% cytotoxic concentration (CC50) in series [5] was > 142 µM; in [8] it was 19.6 µM. Further, the inhibition entry in series [7] is “Active”.
For `COc1ccc2nc(C)cc(OCC(=O)Nc3ccc(OC)c(OC)c3)c2c1`, the result (in series [2]; in the series on Escherichia coli; in [9]; in series [10]; in the series with Staphylococcus aureus) was inactive. Besides, the values for the minimum inhibitory concentration (MIC) in [3], in series [4] and in series [6] were 24.6 µM (≈ 9.4 µg/mL), > 131 µM and > 131 µM, respectively. In addition, the CC50 in series [5] and in [8] was > 131 µM throughout. In addition, the inhibition result in series [7] is “Active”.
Regarding `COc1ccccc1NC(=O)COc1cc(C)nc2ccc(Br)cc12`, the result (in series [2]; in the series on Escherichia coli; in [9]; in series [10]; in the series with Staphylococcus aureus) was inactive. Also, the MIC is > 125 µM in series [3], > 125 µM in [4] and 23.4 µM (≈ 9.4 µg/mL) in series [6]. Moreover, the CC50 in [5] and in series [8] was > 125 µM throughout. In addition, the inhibition result in [7] is “Active”.
Consider `COc1ccc2nc(C)cc(OCC(=O)Nc3ccc(C)cc3)c2c1`, for which the outcome (in series [2]; in the series on Escherichia coli; in series [9]; in series [10]; in the series with Staphylococcus aureus) was inactive. The MIC in series [3] was 0.45 µM (≈ 0.151 µg/mL); in series [4], > 149 µM; in series [6], 0.45 µM (≈ 0.151 µg/mL). Further, the 50% cytotoxic concentration (CC50) was > 149 µM in series [5] and 41.5 µM in [8]. For the same molecule, the inhibition result in series [7] is “Active”.
`COc1ccc2nc(C)cc(OCC(=O)Nc3cccc(C)c3)c2c1`: the MIC90 in series [1] was 0.3 to 3.3 µM (≈ 0.101 to 1.11 µg/mL).
Take `COc1cc(NC(=O)COc2cc(C)nc3ccc(OC)cc23)cc(OC)c1`: the outcome (in series [2]; in the series with Escherichia coli; in series [9]; in [10]; in the series with Staphylococcus aureus) was inactive. In addition, the MIC in [3] is 24.6 µM (≈ 9.4 µg/mL); in series [4], > 131 µM; in [6], > 131 µM. The cytotoxic concentration (CC50) in series [5] and in [8] was > 131 µM in each case. Further, the inhibition entry in series [7] was “Active”.
For `COc1ccc2nc(C)cc(OCC(=O)Nc3ccccc3)c2c1`, the outcome (in [2]; in the series on Escherichia coli; in series [9]; in [10]; in the series on Staphylococcus aureus) was inactive. The minimum inhibitory concentration (MIC) in series [3] is 0.62 µM (≈ 0.2 µg/mL); in series [4], > 155 µM; in series [6], 1.21 µM (≈ 0.39 µg/mL). Besides, the CC50 was > 155 µM in [5] and 118 µM in series [8]. In addition, in [7], the inhibition entry is “Active”.
Take `COc1ccc2nc(C)cc(OCC(=O)Nc3ccc(-c4ccccc4)cc3)c2c1`: the outcome (in series [2]; in the series with Escherichia coli; in [9]; in series [10]; in the series on Staphylococcus aureus) was inactive. In addition, the MIC in series [3] was 1.51 µM (≈ 0.602 µg/mL); in series [4], > 125 µM; in series [6], > 125 µM. The half-maximal cytotoxic concentration (CC50) in series [5] and in series [8] was > 126 µM each time. In addition, the inhibition result in [7] is “Active”.
